Experimental data from PMC11838736 (2025).

System: Doxorubicin aptamer (DNA, aptamer) ACCATCTGTGTAAGGGGTAAGGGGTGGT
Experiment: electrochemical aptamer-based sensor, square-wave voltammetry (KDM), Hill fit
Conditions: 37 °C; in serum; apparent; immobilised aptamer; 8 devices

In the case of `COc1cccc2c1C(=O)c1c(O)c3c(c(O)c1C2=O)C[C@@](O)(C(=O)CO)C[C@@H]3O[C@H]1C[C@H](N)[C@H](O)[C@H](C)O1`, the Kd is reported as 5 µM.
